The source of these data is patent publication US9682087B2 (The Population Council, Inc., priority 2009, dated 2017).

Data set [1] can be described thus: Absorption of the hormones applied onto the skin. It counts as in vivo. On the procedure:
These levels of these hormones applied onto the skin result in 10% absorption, and thus correspond to a daily dose of about 300 to 450 μg of the progestin and about 100 to 150 μg of the estrogen. Expressed in a different manner, it would also be possible to equate these levels of absorption of these hormones to corresponding plasma levels in the patient.

A further data set deals with ovulation. The data set is described as follows: Ovulation blockade by NES at given serum level. The settings on record: doses leading to serum levels of 250 pmol/L. Format: in vivo.
Data set [2] relates to androgenic, estrogenic or glucocorticoid actions. To be noted: at therapeutic levels; cited from earlier work.
The conditions of data set [3]: oral administration; cited from earlier work.

For the compound `C=C1C[C@H]2[C@@H]3CCC4=CC(=O)CC[C@@H]4[C@H]3CC[C@]2(C)[C@@]1(OC(C)=O)C(C)=O` [NES, 16-methylene-17α-acetoxy-19-norpregn-4-ene-3,20-dione], in data set [1] (applied in a transdermal manner), the absorption rate result is “approximately 10%”. Besides, the “subjects in whom ovulation was blocked” value with ovulation is given as “more than 95%”. Also, in data set [2], the “androgenic, estrogenic or glucocorticoid actions” value is “does not carry androgenic, estrogenic or glucocorticoid actions”. In addition, in data set [3], the “activity when administered orally” value is “not active”.
`C[C@]12CC[C@@H]3c4ccc(O)cc4CC[C@H]3[C@@H]1CC[C@@H]2O` [estradiol, 17β-estradiol]: the absorption rate result in data set [1] (female, human, in vivo) is reported as “approximately 10%”.
